Experimental data reported in US20250326744A1, “PIPERAZINE DERIVATIVE OR SALT THEREOF, AND PHARMACEUTICAL COMPOSITION” (priority 2022, published 2025).
Counter-ions that a name gives are not always drawn.

Legend:
mexB (PA) strain = assay: Combinational effect with antibacterial agent against Pseudomonas aeruginosa (Test Examples 2 and 4): mexB (PA) strain with LVFX, TC or AZT at 1/4 MIC, EC99; assay type: cell-based; details: for EC99, mexB (PA), AZT / EC99, combinational effect with AZT, mexB (PA): combined with AZT at 1/4 MIC; for EC99, mexB (PA), LVFX / EC99, combinational effect with LVFX, mexB (PA): combined with LVFX at 1/4 MIC; for EC99, combinational effect with AZT, mexB (PA) / EC99, combinational effect with LVFX, mexB (PA) / EC99, combinational effect with TC, mexB (PA): mexB (PA) strain, Test Example 4
How it was run: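 EC99 denotes the minimum test-compound concentration (range 0–800 μM) that suppresses ≥99% of growth, measured by OD595, when combined with ¼ MIC levofloxacin (LVFX), tetracycline or aztreonam. The efflux-pump mutant mexB (PA), expressing mainly MexAB-OprM, was inoculated at 10^4–5 CFU/well in CAMHB for 16–20 h.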

mexY (EC) strain = assay: Efflux ability inhibition effect on drug efflux pump MexY (Test Examples 1 and 3): proliferation (OD595) of mexY (EC) strain with EM or LVFX at 1/4 MIC, EC75; assay type: cell-based, Escherichia coli; details: for EC75, mexY (EC) strain, EM: combined with EM at 1/4 MIC; for EC75, mexY (EC) strain, LVFX: combined with LVFX at 1/4 MIC
Protocol: The efflux ability inhibition effect of the test compound on the drug efflux pump was evaluated using the bacterial proliferative ability in the presence of EM or LVFX as an index.
EM is a macrolide antibacterial agent and is a drug that is discharged outside the bacteria by MexB and MexY LVFX is a quinolone antibacterial agent and is a drug that is discharged outside the bacteria by MexB and MexY In a case where the test compound has an efflux ability inhibitory ability against the drug efflux pump, the proliferation of bacteria is suppressed by the combined use of EM or LVFX and the test compound, as compared with the case where EM or LVFX is used alone.
A mutant strain (hereinafter, referred to as an “mexB (EC) strain”) obtained by transferring the genes of the main multidrug efflux system MexAB-OprM of Pseudomonas aeruginosa described in Nature, 2013, Vol. 500, pp. 102 to 106 as a plasmid into Escherichia coli strains in which the acrB and tolC genes of the multidrug efflux system AcrAB-TolC were deleted as described in Journal of Infection and Chemotherapy 2008, Vol. 14, pp. 23 to 29, and a gene transfer strain (hereinafter, referred to as an “mexY (EC) strain”) of another main multidrug efflux system MexXY-OprM of Pseudomonas aeruginosa were used for the evaluation of test compounds.
In the mexB (EC) strain, an expression level of MexB of the drug efflux pump is accelerated, and in the mexY (EC) strain, an expression level of MexY of the drug efflux pump is accelerated.
For culturing each Escherichia coli strain, a 96-well plate (amount of culture medium per well: 100 μL) was used and Luria-Bertani broth (LB) culture medium was used. The inoculation amount of the bacteria was set to 10^4 to 5 CFU/well.
The mexB (EC) strain and the mexY (EC) strain were cultured for 16 to 20 hours in a culture medium to which EM or LVFX and test compounds at various concentrations (0 to 800 μM) were added, and the proliferation of the bacterial strains was evaluated by optical turbidity at 595 nm (OD595). The concentration of the antibacterial agents (EM and LVFX) in the culture medium were each set to ¼ of the minimum inhibitory concentration (MIC) (hereinafter, referred to as ¼ MIC) of the single antibacterial agent.
The proliferation of bacteria in a case where the antibacterial agent was added at the concentration of ¼ MIC in a case where the test compound was not added was measured, and compared with the proliferation of bacteria in a case where the test compound was contained, and the lowest concentration of the test compound at which the proliferation was inhibited by 75% or more was defined as the drug efflux pump inhibitory ability of the test compound as 75% inhibitory effect concentration (EC75).
The drug efflux pump inhibitory ability of each test compound in a case of being used in combination with the antibacterial agent against the mexB (EC) strain and the mexY (EC) strain was evaluated as follows according to the value of EC75. • S: EC75≤[…] • A: 12.5 μM<EC75≤25 μM • B: 25 μM<EC75≤100 μM • C: […]
In the same manner as in Test Example 1, the efflux ability inhibition effect of the test compound on the drug efflux pump was evaluated using the bacterial proliferation ability in the presence of EM or LVFX as an index.

S-3769 strain = assay: Combinational effect with antibacterial agent against Pseudomonas aeruginosa (Test Examples 2 and 4): S-3769 strain with AMK or GM at 1/4 MIC, EC99; assay type: cell-based; details: for EC99, combinational effect with AMK, S-3769 strain / EC99, combinational effect with GM, S-3769 strain: Test Example 4
How it was run: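 EC99, the lowest test-compound concentration inhibiting growth by ≥99% (OD595), was measured with aminoglycoside AMK or GM held at ¼ MIC. Strain S-3769, a MexY-overexpressing clinical isolate, was cultured in CAMHB at 10^4 to 5 CFU/well for 16–20 h; compound range 0–800 μM.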

[1] = Table 52, Test Example 2, 16 to 20 hours culture, OD595
[2] = Table 51, Test Example 1, 16 to 20 hours culture, OD595
[3] = Table 53, Test Example 3, same manner as Test Example 1

SMILES	EC99, mexB (PA), AZT (mexB (PA) strain; [1])	EC99, mexB (PA), LVFX (mexB (PA) strain; [1])	EC99, mexB (PA), TC (mexB (PA) strain; Table 52, Test Example 2, combined with TC at 1/4 MIC, 16 to 20 hours culture, OD595)	EC75, mexY (EC) strain, EM (mexY (EC) strain; [2])	EC75, mexY (EC) strain, LVFX (mexY (EC) strain; [2])	EC99, S-3769 strain, AMK (S-3769 strain; Table 52, Test Example 2, combined with AMK at 1/4 MIC, 16 to 20 hours culture, OD595)	EC99, S-3769 strain, GM (S-3769 strain; Table 52, Test Example 2, combined with GM at 1/4 MIC, 16 to 20 hours culture, OD595)	EC99, combinational effect with AZT, mexB (PA) (mexB (PA) strain)	EC99, combinational effect with LVFX, mexB (PA) (mexB (PA) strain)	EC99, combinational effect with TC, mexB (PA) (mexB (PA) strain; combined with TC at 1/4 MIC)	EC75, mexY (EC) strain, EM (mexY (EC) strain; [3])	EC99, combinational effect with AMK, S-3769 strain (S-3769 strain; combined with AMK at 1/4 MIC)	EC99, combinational effect with GM, S-3769 strain (S-3769 strain; combined with GM at 1/4 MIC)	EC75, mexY (EC) strain, LVFX (mexY (EC) strain; [3])
CCOc1cccc(F)c1CN1CCN(C(=O)CN2CCC(C(N)Cc3ccccc3)CC2)CC1 (stereo not shown) [Example 423, hydrochloride of 2-(4-(1-amino-2-phenylethyl)piperidin-1-yl)-1-(4-(2-ethoxy-6-fluorobenzyl)piperazin-1-yl)ethan-1-one]	C (100 μM<EC99)	C (100 μM<EC99)	B (25 μM<EC99≤100 μM)	B (25 μM<EC75≤100 μM)	A (12.5 μM<EC75≤25 μM)	C (100 μM<EC99)	C (100 μM<EC99)	–	–	–	–	–	–	–
CCOc1cccc(F)c1CN1CCN(C(=O)[C@H](N)C2CCN(CCc3cc(Cl)ccc3-c3ccnn3C)CC2)CC1 [Example 503, Hydrobromide of (R)-2-amino-2-(1-(5-chloro-2-(1-methyl-1H-pyrazol-5-yl)phenethyl)piperidin-4-yl)-1-(4-(2-ethoxy-6-fluorobenzyl)piperazin-1-yl)ethan-1-one]	–	–	–	–	–	–	–	C (100 μM<EC99)	C (100 μM<EC99)	C (100 μM<EC99)	A (12.5 μM<EC75≤25 μM)	B (25 μM<EC99≤100 μM)	B (25 μM<EC99≤100 μM)	–
CCOc1cccc(F)c1CN1CCN(C(=O)[C@H](N)C2CC[N+](CCc3cc(Cl)ccc3-c3ccccc3)(CC(=O)[O-])CC2)CC1 (stereo partly drawn) [Example 567, Hydrobromide of (R)-2-(4-(1-amino-2-(4-(2-ethoxy-6-fluorobenzyl)piperazin-1-yl)-2-oxoethyl)-1-(2-(4-chloro-[1,1-biphenyl]-2-yl)ethyl)piperidin-4-ium-1-yl)acetate]	–	–	–	–	–	–	–	C (100 μM<EC99)	C (100 μM<EC99)	C (100 μM<EC99)	B (25 μM<EC75≤100 μM)	B (25 μM<EC99≤100 μM)	C (100 μM<EC99)	B (25 μM<EC75≤100 μM)
N[C@@H](C(=O)N1CCN(Cc2nccc3c2OCCO3)CC1)C1CCN(CCc2cc(Cl)ccc2-c2ccccc2)CC1 [Example 520, Hydrobromide of (R)-2-amino-2-(1-(2-(4-chloro-[1,1-biphenyl]-2-yl)ethyl)piperidin-4-yl)-1-(4-((2,3-dihydro-[1,4]dioxino[2,3-c]pyridin-5-yl)methyl)piperazin-1-yl)ethan-1-one]	–	–	–	–	–	–	–	C (100 μM<EC99)	C (100 μM<EC99)	C (100 μM<EC99)	A (12.5 μM<EC75≤25 μM)	B (25 μM<EC99≤100 μM)	C (100 μM<EC99)	A (12.5 μM<EC75≤25 μM)
CSc1ccc(CN2CCN(C(=O)[C@H](N)C3CCN(CCc4cc(Cl)ccc4-c4ccccc4)CC3)CC2)s1 [Example 523, Hydrobromide of (R)-2-amino-2-(1-(2-(4-chloro-[1,1-biphenyl]-2-yl)ethyl)piperidin-4-yl)-1-(4-((5-(methylthio)thiophen-2-yl)methyl)piperazin-1-yl)ethan-1-one]	–	–	–	–	–	–	–	B (25 μM<EC99≤100 μM)	B (25 μM<EC99≤100 μM)	B (25 μM<EC99≤100 μM)	–	B (25 μM<EC99≤100 μM)	B (25 μM<EC99≤100 μM)	A (12.5 μM<EC75≤25 μM)
CCOc1cccc(F)c1CN1CCN(C(=O)[C@H](N)C2CCN(CCc3cc(Cl)ccc3-c3c[nH]ccc3=O)CC2)CC1 [Example 577, Hydrochloride of (R)-3-(2-(2-(4-(1-amino-2-(4-(2-ethoxy-6-fluorobenzyl)piperazin-1-yl)-2-oxoethyl)piperidin-1-yl)ethyl)-4-chlorophenyl)pyridine-4(1H)-one]	–	–	–	–	–	–	–	B (25 μM<EC99≤100 μM)	B (25 μM<EC99≤100 μM)	B (25 μM<EC99≤100 μM)	–	C (100 μM<EC99)	C (100 μM<EC99)	A (12.5 μM<EC75≤25 μM)
COc1ccccc1CN1CCN(C(=O)CN2CCN(CCc3cccc(Cl)c3)CC2)CC1 [Example 272, 2-(4-(3-chlorophenethyl)piperazin-1-yl)-1-(4-(2-methoxybenzyl)piperazin-1-yl)ethan-1-one]	S (EC99≤12.5 μM)	S (EC99≤12.5 μM)	–	B (25 μM<EC75≤100 μM)	B (25 μM<EC75≤100 μM)	–	–	–	–	–	–	–	–	–
CCSc1cc(F)ccc1CN1CCN(C(=O)[C@H](N)C2CCN(CCc3cc(Cl)ccc3-c3ccccc3Cl)CC2)CC1 [Example 599, Hydrochloride of (R)-2-amino-2-(1-(2-(2′,4-dichloro-[1,1-biphenyl]-2-yl)ethyl)piperidin-4-yl)-1-(4-(2-(ethylthio)-4-fluorobenzyl)piperazin-1-yl)ethan-1-one]	–	–	–	–	–	–	–	S (EC99≤12.5 μM)	S (EC99≤12.5 μM)	S (EC99≤12.5 μM)	A (12.5 μM<EC75≤25 μM)	B (25 μM<EC99≤100 μM)	S (EC99≤12.5 μM)	–
